Source: US20120129872A1, “FUSED HETEROARYL INHIBITORS OF PRO-MATRIX METALLOPROTEINASE ACTIVATION” (priority 2010, published 2012)

Legend:
MMP9 = target: T1, MMP9 (Rattus norvegicus, UniProt P50282); assay: Pro and active MMP9 in ankles of rats with SCW-induced arthritis (Western blot); assay type: in vivo
T1 construct: endogenous in cells; host or cells: primary synoviocytes from arthritic female Lewis rats
Procedure: Hind-limbs were skinned, severed just above the tibia-tarsus joint and below the metatarsals, and the tibia-tarsus joints (ankles) were weighed, snap frozen and pulverized on dry ice using a hammer and anvil. The pulverized tissue was suspended in 3 volumes (w:v) of ice-cold homogenization buffer containing 50 mM Tris pH 7.5, 150 mM NaCl, 5 mM EDTA, 1% Triton X100, 0.05% Brij 30, 10% dimethylsulfoxide and Complete EDTA-free Protease Inhibitor Cocktail (Roche Diagnostics). The suspended tissue was homogenized sequentially with a Kinematica AG Polytron and a Dounce homogenizer. Homogenates were centrifuged at 16,000×g for 10 min at 4° C. and the soluble fractions were saved. Dimethylsulfoxide was removed from a portion of each soluble fraction using PD MiniTrap™ G-25 desalting columns (GE Healthcare). Homogenates (0.25 mL), free of DMSO, were diluted with an equal volume of binding buffer (i.e., homogenization buffer without dimethylsufoxide) and adjusted to contain 50 μL of a 50% slurry of gelatin-conjugated sepharose. Following 2 hours of rotation at 4° C. the beads were washed twice in binding buffer and eluted in 100 μL 2×-reducing Laemmli buffer with heating to 95° C. for 5 minutes. […]

SCW-induced arthritis = assay: Efficacy in rats with SCW-induced arthritis (ankle thickness, clinical scores); assay type: in vivo, rat; settings: 5, 20, 50 mg/kg BID
Source text: A polyarthritis can be induced in female Lewis rats following i.p. administration of streptococcal cell wall (SCW) […] (PG-PS) (J Exp Med 1977; 146:1585-1602). The model has an acute phase (days 3-7) that is complement and neutrophil-dependent and that resolves. A chronic erosive phase begins at about day ten and is dependent on the development of specific T cell immunity to the PG-GS, which resists digestion and remains present in synovial macrophages for months. Like rheumatoid arthritis, SCW-induced arthritis is reduced by TNF inhibitors, and the dependence of SCW-induced arthritis on macrophages (Rheumatology; 2001; 40:978-987) and the strong association of rheumatoid arthritis severity with synovial-tissue macrophage counts (Ann Rheum Dis; 2005; 64:834-838) makes SCW-arthritis an attractive model for testing potential therapeutic agents. SCW PG-PS 10S (Beckton Dickinson Cat#210866) suspended in saline was vortexed for 30 seconds and sonicated for 3 min with a probe type sonicator prior to injection. […]
To induce arthritis, Female Lewis (LEW/N) rats, 5-6 weeks of age (80-100 g) were injected (i.p.) with SCW PG-PS as described above. […] Each ankle was measured 3 times and averaged, and treatment groups were randomized based on ankle thickness (Table 6). […]

T1 sequence (P50282 108-708): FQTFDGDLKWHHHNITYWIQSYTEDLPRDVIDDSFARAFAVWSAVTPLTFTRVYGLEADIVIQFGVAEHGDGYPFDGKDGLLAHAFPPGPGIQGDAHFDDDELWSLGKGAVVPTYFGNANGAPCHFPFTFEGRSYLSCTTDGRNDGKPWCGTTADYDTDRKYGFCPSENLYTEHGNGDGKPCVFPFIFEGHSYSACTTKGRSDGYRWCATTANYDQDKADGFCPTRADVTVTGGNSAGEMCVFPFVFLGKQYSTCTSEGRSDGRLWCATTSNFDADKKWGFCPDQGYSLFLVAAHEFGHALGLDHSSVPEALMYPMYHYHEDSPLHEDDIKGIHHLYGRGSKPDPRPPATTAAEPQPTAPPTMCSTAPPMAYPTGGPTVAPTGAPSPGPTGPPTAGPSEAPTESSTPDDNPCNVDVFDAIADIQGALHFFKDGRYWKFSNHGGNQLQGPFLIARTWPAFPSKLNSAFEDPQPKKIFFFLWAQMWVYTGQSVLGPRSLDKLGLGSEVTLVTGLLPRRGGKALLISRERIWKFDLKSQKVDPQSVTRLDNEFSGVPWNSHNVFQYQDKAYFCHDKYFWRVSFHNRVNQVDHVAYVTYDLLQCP

## Cc1nc(C)c(-c2csc(Nc3cc(S(N)(=O)=O)ccc3OC(C)C)n2)s1 [Compound-α, 3-(2′,4′-Dimethyl-[4,5′]bithiazolyl-2-ylamino)-4-isopropoxy-benzenesulfonamide•HBr]
MMP9; Day 26, FIG. 3A lanes 4-9
  Abundance of proMMP9 in ankles: did not reduce the abundance of proMMP9
MMP9; Day 26, FIG. 3A lanes 4-9, listed as Compound a
  Abundance of proMMP9 in ankles: did not reduce the abundance of proMMP-9
SCW-induced arthritis; Day 18-26
  Effect on ankle thickness measurements: dose-dependent decrease in ankle thickness measurements
SCW-induced arthritis; significant effects emerging at 20 mg/kg
  Effect on clinical score measurements: dose dependent decrease in clinical score measurements
